Reference: US20100298137A1, “ACTIVE INGREDIENT COMBINATIONS WITH INSECTICIDAL PROPERTIES” (BAYER CROPSCIENCE AG, priority 2006, published 2010)

How the values were obtained:
Aphis gossypii = Aphis gossypii test (cotton leaves dipped into the preparation of active compound); type: in vivo; conditions: leaf dip
Source text: (§1) The expected activity for a given combination of two active compounds can be calculated according to S. R. Colby, Weeds 15 (1967), 20-22 as follows:
(§2) If • X is the kill rate, expressed in % of the untreated control, when active compound A is applied at an application rate of m g/ha or at a concentration of m ppm, • Y is the kill rate, expressed in % of the untreated control, when active compound B is applied at an application rate of n g/ha or at a concentration of n ppm and • E is the kill rate, expressed in % of the untreated control, when active compounds A and B is applied at application rates of m and n g/ha or at a concentration of m and n ppm, then
(§3) If the actual kill rate is greater than calculated, the kill of the combination is superadditive, i.e. there is a synergistic effect. In this case, the actual observed kill rate has to be greater than the value for the expected kill rate (E) calculated from the formula given above.
(§4) To produce a suitable preparation of active compound, 1 part by weight of active compound is mixed with the stated amounts of solvent and emulsifier, and the concentrate is diluted with emulsifier-containing water to the desired concentration.
Cotton leaves (Gossypium hirsutum) which are heavily infested by the cotton aphid (Aphis gossypii) are treated by being dipped into the preparation of active compound of the desired concentration.
(§5) After the desired period of time, the kill in % is determined. 100% means that all aphids have been killed; 0% means that none of the aphids have been killed. The kill rates determined are entered into the Colby formula (see sheet 1).

Myzus persicae = Myzus persicae test (cabbage leaves dipped into the preparation of active compound); type: in vivo; conditions: leaf dip
Source text: as §1, §2, §3, §4
Cabbage leaves (Brassica oleracea) which are heavily infested by the green peach aphid (Myzus persicae) are treated by being dipped into the preparation of active compound of the desired concentration.
as §5

CC(C)N1C(=O)N(c2ccccc2)CS/C1=N\C(C)(C)C [buprofezin]
Kill in % after 1 d (Aphis gossypii; 100 ppm): 5% | Kill in % after 1 d (Myzus persicae; 100 ppm): 0%

CN(Cc1ccc(Cl)nc1)C1=CC(=O)OC1 [compound (Ia)]
Kill in % after 1 d (Aphis gossypii; 0.16 ppm): 20% | Kill in % after 1 d (Aphis gossypii; 0.8 ppm): 55% | Kill in % after 1 d (Myzus persicae; 0.16 ppm): 10% | Kill in % after 6 d (Myzus persicae; 0.16 ppm): 0% | Kill in % after 1 d (Myzus persicae; 0.8 ppm): 45% | Kill in % after 6 d (Myzus persicae; 0.8 ppm): 50%

O=C1C=C(N(Cc2ccc(Cl)nc2)C2CC2)CO1 [compound (Ib)]
Kill in % after 6 d (Aphis gossypii; 0.16 ppm): 0% | Kill in % after 1 d (Aphis gossypii; 0.8 ppm): 45% | Kill in % after 6 d (Aphis gossypii; 0.8 ppm): 50% | Kill in % after 1 d (Aphis gossypii; 4 ppm): 80% | Kill in % after 6 d (Myzus persicae; 0.16 ppm): 0% | Kill in % after 1 d (Myzus persicae; 0.8 ppm): 10% | Kill in % after 1 d (Myzus persicae; 4 ppm): 70% | Kill in % after 6 d (Myzus persicae; 4 ppm): 33%

CC[S+]([O-])c1c(C#N)nn(-c2c(Cl)cc(C(F)(F)F)cc2Cl)c1N (centres unmarked) [ethiprole]
Kill in % after 6 d (Aphis gossypii; 0.8 ppm): 30%

N#Cc1nn(-c2c(Cl)cc(C(F)(F)F)cc2Cl)c(N)c1[S+]([O-])C(F)(F)F (centres unmarked) [fipronil]
Kill in % after 6 d (Aphis gossypii; 20 ppm): 70% | Kill in % after 6 d (Myzus persicae; 4 ppm): 0%

Cc1cc(C(F)(C(F)(F)F)C(F)(F)F)ccc1NC(=O)c1cccc(I)c1C(=O)NC(C)(C)CS(C)(=O)=O [flubendiamid, flubendiamide]
Kill in % after 6 d (Myzus persicae; 100 ppm): 6%

COC(=O)N(C(=O)N1COC2(C(=O)OC)Cc3cc(Cl)ccc3C2=N1)c1ccc(OC(F)(F)F)cc1 (centres unmarked) [indoxacarb]
Kill in % after 1 d (Aphis gossypii; 100 ppm): 0% | Kill in % after 6 d (Myzus persicae; 100 ppm): 20%

COc1cccc(C(=O)NN(C(=O)c2cc(C)cc(C)c2)C(C)(C)C)c1C [methoxyfenozide]
Kill in % after 1 d (Aphis gossypii; 100 ppm): 0% | Kill in % after 1 d (Myzus persicae; 100 ppm): 0%

FC(F)(F)c1ccc(OCCCOc2c(Cl)cc(OCC=C(Cl)Cl)cc2Cl)nc1 [pyridalyl]
Kill in % after 1 d (Aphis gossypii; 100 ppm): 5% | Kill in % after 6 d (Myzus persicae; 100 ppm): 0%

CNC(=O)c1cc(Cl)cc(C)c1NC(=O)c1cc(Br)nn1-c1ncccc1Cl [rynaxapyr, 3-bromo-N-{4-chloro-2-methyl-6-[(methylamino)carbonyl]phenyl}-1-(3-chloropyridin-2-yl)-1H-pyrazole-5-carboxamide]
Kill in % after 6 d (Aphis gossypii; 0.8 ppm): 15% | Kill in % after 1 d (Myzus persicae; 4 ppm): 30%

abamectin
Kill in % after 1 d (Myzus persicae; 100 ppm): 55%

emamectin benzoate
Kill in % after 1 d (Aphis gossypii; 20 ppm): 10%

spinosad
Kill in % after 1 d (Myzus persicae; 100 ppm): 5% | Kill in % after 6 d (Myzus persicae; 100 ppm): 5%
